In brackets after ≈: the same amount, converted by molar mass. A value given as a limit tells only on which side of the number the result lay.

Series [1] can be described thus: Chemical stability in phosphate buffer (HPLC-UV). The format is physicochemical. The procedure:
Stability testing was performed in phosphate buffer pH 2.0 and 7.4 (prepared according to Ph. Eur. 10) at 20 °C over a period of 48 h. Therefore, 0.4 mg of substance was dissolved in Tween® 20 und ethanol (7/3 v/v) and diluted with the respective phosphate buffer. The solution was shaken with an IKA KS 260 basic (250 min^−1) at 25 °C for 48 h. Analysis was performed after 1, 3, 6, 24, and 48 h by comparing the area under the curve (A.U.C.), which was measured with HPLC-UV at 254 nm (n = 1).

The nature of series [2]: Single-point metabolic stability in human liver microsomes. The format is in vitro ADME. The protocol: The metabolic stability assay was performed in Human Liver Microsomes (HLM) using a single-point metabolic stability assay. Briefly, the compounds were incubated at 1 μM in 0.4 mg/mL human mixed-gender liver microsomes (Xenotech, Kansas City, KS, USA, pool of 50) for 30 min at 37 °C. Reactions were quenched by adding ice-cold acetonitrile containing internal standard. The samples were then centrifuged and analyzed by LC-MS/MS for the disappearance of the parent compound. Half-life, clearance, and hepatic […] ratios were determined using standard equations [47, 48]. Propranolol and midazolam were used as positive controls and treated similarly.
For orientation: Liver microsomes are vesicles of endoplasmic reticulum, rich in cytochrome P450 enzymes.

Series [3] concerns human cell lines MRC-5, HEK-293, THP-1. The format is cell-based. The procedure: For the determination of the cytotoxicity of the compounds, different human cell lines were used. The human fetal lung fibroblast cell line MRC-5 (American Type Culture Collection) was incubated in Eagle’s Minimum Essential Medium (EMEM) containing 1% (v/v) Na-pyruvate, whereas the human embryonic kidney cell line HEK-293 (CLS Cell Lines Service GmbH) was cultivated in EMEM supplemented with 2 mM L-glutamine, 1% (v/v) non-essential amino acids, and 1 mM sodium pyruvate. The human monocyte cell line THP-1 (Deutsche Sammlung von Mikroogranismen und Zellkulturen GmbH) was cultured in RPMI 1640 medium. All media were supplemented with 10% (v/v) heat-inactivated fetal bovine serum (FBS).
The cell densities were quantified using a hemocytometer and then adjusted to 10^6 cells/mL. Next, 100 µL per well were seeded in 96-well microtiter plates to yield an inoculation cell density of […] cells per well. Compounds were added employing two-fold serial dilutions resulting in final concentrations ranging from 100 to 0.78 µM. Cells were incubated for two days at 37 °C and 5% CO2 in a humidified atmosphere. […] Fluorescence was measured in a TECAN microplate reader (excitation of 540 nm, emission of 590 nm). The percentage of growth was calculated with respect to DMSO (100% growth) and Triton X-100 (0% growth) controls.

The test system of series [4] is M. tuberculosis H37Rv. The experiment in a line: Minimal inhibitory concentration (MIC) resazurin assay. The format is cell-based, Mycobacterium tuberculosis.
Assay in series [5]: not given
This is another data set of the same source.

The next series relates to monocyte cell line THP-1. As to conditions: ref Rehberg et al. [14]; cited from earlier work.
Series [6] can be described thus: physchem. To be noted: pH 7.4.
Series [7] is described as follows: physchem.
Series [8] has as its system Mtb XDR clinical isolates. To be noted: ref Rehberg et al. [14]; cited from earlier work.
Series [9] deals with M. tuberculosis H37Rv. The arrangement: method as in Rehberg et al. [14]. To be noted: ref Rehberg et al. [14], cited from earlier work.
The subject of series [10] is human fetal lung fibroblast cell line MRC-5. To be noted: ref Rehberg et al. [14]; cited from earlier work.
A further series deals with Mtb. The arrangement: method as in PMID 9818746. As to conditions: Mtb-infected mice; cited from earlier work.

Turning to `COc1cc(O)c2c(=O)c(OC)c(-c3cccc(C)c3O)oc2c1OC`, the melting point – broadly, the temperature, or range, at which the solid turns liquid – came to 213.3 °C.
Consider `COc1cc(O)c2c(=O)c(OC)c(-c3cccc(Br)c3OC(F)F)oc2c1OC`, for which the melting point was 162.4 °C.
The same measure, in the same setting: in the case of `COc1cc(O)c2c(=O)c(OC)c(-c3cc(F)cc(Cl)c3O)oc2c1OC` it was 245 °C.
With `COc1cc(O)c2c(=O)c(OC)c(-c3ccc(Cl)cc3O)oc2c1OC`, the melting point is 240.7 °C.
Molecule `COc1cc(O)c2c(=O)c(OC)c(-c3ccc(Cl)c(O)c3)oc2c1OC` yielded a melting point of 48 °C.
In turn, `COc1cc(O)c2c(=O)c(OC)c(-c3cccc(Cl)c3Cl)oc2c1OC` yielded a melting point of 184.8 °C.
In turn, `COc1cc(O)c2c(=O)c(OC)c(-c3cccc(Cl)c3)oc2c1OC` gave a melting point of 188.3 °C.
On to `COc1cc(O)c2c(=O)c(OC)c(-c3cccc(Br)c3O)oc2c1OC` [BF, bromflavonin], for which the “drug content after 48 h” value amounted to 99% in series [1] (phosphate buffer pH 2.0, 48 h) and 99% in [1] (phosphate buffer pH 7.4, 48 h). The “CLint, app (predicted in vivo intrinsic clearance)” value in series [2] is listed as 53.4. In addition, the “cytotoxicity toward human cells” value in [3] was “no cytotoxicity”. The “Minimal Inhibitory Concentrations (MIC90)” value in the series with M. tuberculosis H37Rv [4] was found to be 0.78 μm. Besides, the antimycobacterial activity entry in the series on M. tuberculosis H37Rv [4] (Mtb H37Rv, in words) is reported as “submicromolar”. Further, the “Water solubility at pH 7.4” value in [5] is recorded as below 5 μM.
With `COc1cc(O)c2c(=O)c(OC)c(-c3cccc(Cl)c3O)oc2c1OC` [CF, chlorflavonin], the melting point turned out to be 213.7 °C. The cytotoxicity entry with monocyte cell line THP-1 was “no cytotoxicity”. In addition, in [1] (phosphate buffer pH 2.0, 48 h), the “drug content after 48 h” value turned out to be 99%. Further, in series [1] (phosphate buffer pH 7.4, 48 h), the “drug content after 48 h” value is recorded as 99%. Besides, in the series “physchem [6]”, the solubility (as a rule, how much of the substance goes into solution per volume) at 24 h is below 5 µM. For the same molecule, the pKa (as a rule, the negative logarithm of the acid dissociation constant) in the series “physchem [7]” (pKa1 (2′-OH)) came to 6.8 ± 0.07. For the same molecule, the pKa in “physchem [7]” (pKa2 (5-OH)) is 10.4. Moreover, the “remaining after 30 min” value in series [2] (1 μM, human liver microsomes 0.4 mg/mL, 30 min, 37 °C) is on record as 48%. Also, in series [8], the “in vitro growth inhibition” value is given as “strong in vitro growth inhibition”. For the same molecule, in the series on M. tuberculosis H37Rv [9] (mono treatment with CF), the “effect of mono treatment” value is “bacteriostatic effect”. In addition, in the series with M. tuberculosis H37Rv [9] (virulent Mtb H37Rv, in vitro growth inhibition), the MIC90 (commonly an inhibitory concentration at the 90% level, which refers to growth in some studies and to a panel of isolates in others) is 1.56 µM (≈ 0.591 µg/mL). The combination effect entry with M. tuberculosis H37Rv [9] (with delamanid and isoniazid, including intracellular activity against infected human macrophages) was “synergistic efficacy”. In addition, in series [10], the cytotoxicity result is given as “no cytotoxicity”.
In the case of `COc1cc(O)c2c(=O)c(OC)c(-c3cccc(Br)c3O)oc2c1OC` [Compound 1a], the melting point is 210.2 °C.
Same read-out and setting: then `COc1cc(O)c2c(=O)c(OC)c(-c3cccc(F)c3O)oc2c1OC` [Compound 1b], with 208.6 °C.
`COc1cc(O)c2c(=O)c(OC)c(-c3cccc(I)c3O)oc2c1OC` [Compound 1c] displayed a melting point of 223.4 °C.
Take `COc1cc(O)c2c(=O)c(OC)c(-c3cccc(C(F)(F)F)c3O)oc2c1OC` [Compound 1d]: the melting point was 195.4 °C.
On the same count and under the same terms, then `COc1cc(O)c2c(=O)c(OC)c(-c3cccc(Br)c3F)oc2c1OC` [Compound 1f], with 217.4 °C; and `COc1cc(O)c2c(=O)c(OC)c(-c3cc(F)cc(Br)c3O)oc2c1OC` [Compound 1i], with 251.4 °C.
In the case of `COC(=O)c1ccccc1S(=O)(=O)NC(=O)Nc1nc(C)cc(C)n1` [sulfometuron methyl], the “proliferation of the pathogen in the host's lungs” value in the series on Mtb is “significantly reduced proliferation”.
